Biological target: T1, His-hMAGL (recombinant polyhistidine tagged human MAGL protein) (Homo sapiens, UniProt Q99685)
T1 construct: made in house; host or cells: E. coli BL21(DE3)
T1 sequence (Q99685 1-303): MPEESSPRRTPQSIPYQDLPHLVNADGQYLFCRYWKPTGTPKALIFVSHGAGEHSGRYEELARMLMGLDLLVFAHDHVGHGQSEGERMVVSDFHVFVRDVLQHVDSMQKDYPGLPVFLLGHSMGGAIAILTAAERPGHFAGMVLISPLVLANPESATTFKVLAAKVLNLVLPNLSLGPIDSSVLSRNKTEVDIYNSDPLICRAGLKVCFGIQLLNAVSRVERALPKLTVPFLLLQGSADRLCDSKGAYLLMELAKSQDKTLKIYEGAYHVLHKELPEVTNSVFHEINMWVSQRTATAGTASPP
Assay: Measurement of MAGL inhibitory activity (arachidonic acid production from 2-arachidonylglycerol, RapidFire-mass spectrometry)
Format: biochemical
Conditions: MAGL inhibitory rate, test compound 10 μM, 60 min preincubation, 2-arachidonylglycerol substrate
How it was run: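 Arachidonic acid formed was quantified by online solid-phase extraction and triple-quadrupole MS in negative SRM mode against a d8 internal standard. Reaction: recombinant His-hMAGL (7.5 ng/mL, pH 7.5 Tris buffer with Triton X-100 and BSA) plus 2-AG (5 μL of 150 μM stock) for 10 min at room temperature, quenched with 2% formic acid. Percent inhibition corrected for enzyme-free background.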

SMILES	inhibition at 10 µM [%]	% inhibition (10 μM) (10 µM) [%]
O=C1CCC2(CN(C(=O)c3ccc(-c4cccc(OC(F)(F)F)c4)cc3)C2)N1 [Example 60, 2-((3′-(trifluoromethoxy)biphenyl-4-yl)carbonyl)-2,5-diazaspiro[3.4]octan-6-one]	98	–
Cc1cc(F)ccc1-c1ccc2c(Cl)c(C(=O)N3CC4(CCC(=O)N4)C3)sc2c1 [Example 209, 2-((3-chloro-6-(4-fluoro-2-methylphenyl)-1-benzothiophen-2-yl)carbonyl)-2,5-diazaspiro[3.4]octan-6-one]	99	–
O=C1CCC2(CN(C(=O)c3sc4cc(-c5ccc(C6CC6)cc5)ccc4c3Cl)C2)N1 [Example 217, 2-((3-chloro-6-(4-cyclopropylphenyl)-1-benzothiophen-2-yl)carbonyl)-2,5-diazaspiro[3.4]octan-6-one]	97	–
O=C1CCC2(CN(C(=O)c3ccc(COc4ccccc4C(F)(F)F)cc3)C2)N1 [Example 5, 2-(4-((2-(trifluoromethyl)phenoxy)methyl)benzoyl)-2,5-diazaspiro[3.4]octan-6-one]	99	–
O=C1CCC2(CN(C(=O)c3sc4cc(C(F)(F)F)ccc4c3Cl)C2)N1 [Example 20, 2-((3-chloro-6-(trifluoromethyl)-1-benzothiophen-2-yl)carbonyl)-2,5-diazaspiro[3.4]octan-6-one]	104	–
CC1(c2cccc(-c3ccc(C(=O)N4CC5(COC(=O)N5)C4)cc3F)c2)CC1 [Example 274, 2-((2-fluoro-3′-(1-methylcyclopropyl)biphenyl-4-yl)carbonyl)-7-oxa-2,5-diazaspiro[3.4]octan-6-one]	101	–
O=C1CCC2(CN(C(=O)c3sc4cc(C(F)(F)F)ccc4c3F)C2)N1 [Example 238, 2-((3-fluoro-6-(trifluoromethyl)-1-benzothiophen-2-yl)carbonyl)-2,5-diazaspiro[3.4]octan-6-one]	97	–
O=C1NC2(CO1)CN(C(=O)c1sc3cc(C4=CCC(F)(F)CC4)cc(F)c3c1C1=CCC(F)(F)CC1)C2 [Example 310, 2-((3,6-bis(4,4-difluorocyclohex-1-en-1-yl)-4-fluoro-1-benzothiophen-2-yl)carbonyl)-7-oxa-2,5-diazaspiro[3.4]octan-6-one]	100	–
O=C1CCC2(CN(C(=O)c3sc4cc(-c5ccc(F)cc5Cl)ccc4c3Cl)C2)N1 [Example 224, 2-((3-chloro-6-(2-chloro-4-fluorophenyl)-1-benzothiophen-2-yl)carbonyl)-2,5-diazaspiro[3.4]octan-6-one]	100	–
O=C1CCC2(CN(C(=O)c3ccc(-c4cc(C(F)(F)F)cc(C(F)(F)F)c4)cc3)C2)N1 [Example 48, 2-((3′,5′-bis(trifluoromethyl)biphenyl-4-yl)carbonyl)-2,5-diazaspiro[3.4]octan-6-one]	98	–
Cc1cc(-c2ccc3c(Cl)c(C(=O)N4CC5(CCC(=O)N5)C4)sc3c2)c(C)s1 [Example 233, 2-((3-chloro-6-(2,5-dimethyl-3-thienyl)-1-benzothiophen-2-yl)carbonyl)-2,5-diazaspiro[3.4]octan-6-one]	101	–
O=C1CCC2(CN(C(=O)N3CC(COc4ccc(Br)cc4F)C3)C2)N1 [Example 16, 2-((3-((4-bromo-2-fluorophenoxy)methyl)azetidin-1-yl)carbonyl)-2,5-diazaspiro[3.4]octan-6-one]	104	–
O=C1CCC2(CN(C(=O)c3sc4cc(-c5cccc(C6CC6)c5)ccc4c3Cl)C2)N1 [Example 218, 2-((3-chloro-6-(3-cyclopropylphenyl)-1-benzothiophen-2-yl)carbonyl)-2,5-diazaspiro[3.4]octan-6-one]	100	–
O=C1NC2(CO1)CN(C(=O)c1sc3cc(OC(F)(F)F)cc(C(F)F)c3c1Cl)C2 [Example 316, 2-((3-chloro-4-(difluoromethyl)-6-(trifluoromethoxy)-1-benzothiophen-2-yl)carbonyl)-7-oxa-2,5-diazaspiro[3.4]octan-6-one]	100	–
Cc1c(OC(F)(F)F)ccc2c(Cl)c(C(=O)N3CC4(COC(=O)N4)C3)sc12 [Example 286, 2-((3-chloro-7-methyl-6-(trifluoromethoxy)-1-benzothiophen-2-yl)carbonyl)-7-oxa-2,5-diazaspiro[3.4]octan-6-one]	100	–
Cc1ccc(F)c(-c2ccc3c(Cl)c(C(=O)N4CC5(CCC(=O)N5)C4)sc3c2)c1 [Example 202, 2-((3-chloro-6-(2-fluoro-5-methylphenyl)-1-benzothiophen-2-yl)carbonyl)-2,5-diazaspiro[3.4]octan-6-one]	100	–
O=C1CCC2(CN(C(=O)c3ccc(-c4cccc(Cl)c4)cc3)C2)N1 [Example 86, 2-((3′-chlorobiphenyl-4-yl)carbonyl)-2,5-diazaspiro[3.4]octan-6-one]	97	–

SMILES	inhibition at 10 µM [%]	% inhibition (10 μM) (10 µM) [%]
O=C1NC2(CCO1)CN(C(=O)c1sc3cc(OC(F)(F)F)ccc3c1Cl)C2 [Example 282, 2-((3-chloro-6-(trifluoromethoxy)-1-benzothiophen-2-yl)carbonyl)-7-oxa-2,5-diazaspiro[3.5]nonan-6-one]	99	–
O=C1CCC2(CN(C(=O)N3CCC(F)(Cc4ccc(F)cc4)CC3)C2)N1 [Example 97, 2-((4-fluoro-4-(4-fluorobenzyl)piperidin-1-yl)carbonyl)-2,5-diazaspiro[3.4]octan-6-one]	96	–
O=C1CCC2(CN(C(=O)c3ccc(C(F)(F)c4ccccc4)cc3)C2)N1 [Example 28, 2-(4-(difluoro(phenyl)methyl)benzoyl)-2,5-diazaspiro[3.4]octan-6-one]	97	–
O=C1CCC2(CN(C(=O)c3cc4ccc(C(F)(F)F)cc4s3)C2)N1 [Example 30, 2-((6-(trifluoromethyl)-1-benzothiophen-2-yl)carbonyl)-2,5-diazaspiro[3.4]octan-6-one]	94	–
O=C1NC2(CO1)CN(C(=O)c1sc3cc(OC(F)(F)F)c(Cl)cc3c1Cl)C2 [Example 298, 2-((3,5-dichloro-6-(trifluoromethoxy)-1-benzothiophen-2-yl)carbonyl)-7-oxa-2,5-diazaspiro[3.4]octan-6-one]	100	–
O=C1CCC2(CN(C(=O)c3sc(-c4cccc(OCC(F)(F)F)c4)cc3Cl)C2)N1 [Example 178, 2-((3-chloro-5-(3-(2,2,2-trifluoroethoxy)phenyl)-2-thienyl)carbonyl)-2,5-diazaspiro[3.4]octan-6-one]	100	–
Cc1cc(-c2ccccc2)sc1C(=O)N1CC2(CCC(=O)N2)C1 [Example 129, 2-((3-methyl-5-phenyl-2-thienyl)carbonyl)-2,5-diazaspiro[3.4]octan-6-one]	89	–
O=C1NC2(CO1)CN(C(=O)c1sc3c(OC(F)(F)F)ccc(F)c3c1Cl)C2 [Example 267, 2-((3-chloro-4-fluoro-7-(trifluoromethoxy)-1-benzothiophen-2-yl)carbonyl)-7-oxa-2,5-diazaspiro[3.4]octan-6-one]	101	–
COC(=O)c1ccc(-c2ccc(CC3CCN(C(=O)N4CC5(CCC(=O)N5)C4)CC3)cc2)cc1 [Example 109, methyl 4′-((1-((6-oxo-2,5-diazaspiro[3.4]oct-2-yl)carbonyl)piperidin-4-yl)methyl)biphenyl-4-carboxylate]	98	–
O=C1CCC2(CN(C(=O)c3sc4ccc(Cl)cc4c3-c3ccccc3)C2)N1 [Example 143, 2-((5-chloro-3-phenyl-1-benzothiophen-2-yl)carbonyl)-2,5-diazaspiro[3.4]octan-6-one]	100	–
O=C1CCC2(CN(C(=O)c3sc4cc(-c5cccnc5C(F)(F)F)ccc4c3Cl)C2)N1 [Example 230, 2-((3-chloro-6-(2-(trifluoromethyl)pyridin-3-yl)-1-benzothiophen-2-yl)carbonyl)-2,5-diazaspiro[3.4]octan-6-one]	100	–
O=C1NC2(CO1)CN(C(=O)c1sc3c(C(F)(F)F)cccc3c1C(F)F)C2 [Example 277, 2-((3-(difluoromethyl)-7-(trifluoromethyl)-1-benzothiophen-2-yl)carbonyl)-7-oxa-2,5-diazaspiro[3.4]octan-6-one]	101	–
O=C1NC2(CO1)CN(C(=O)c1sc3cc(C4CC4)cc(F)c3c1Cl)C2 [Example 311, 2-((3-chloro-6-cyclopropyl-4-fluoro-1-benzothiophen-2-yl)carbonyl)-7-oxa-2,5-diazaspiro[3.4]octan-6-one]	101	–
O=C1CCC2(CN(C(=O)N3CCC(Cc4ccccc4F)CC3)C2)N1 [Example 96, 2-((4-(2-fluorobenzyl)piperidin-1-yl)carbonyl)-2,5-diazaspiro[3.4]octan-6-one]	101	–
O=C1NC2(CCN(C(=O)c3sc4cc(OC(F)(F)F)ccc4c3Cl)C2)CO1 (stereo not drawn) [Example 324, 7-((3-chloro-6-(trifluoromethoxy)-1-benzothiophen-2-yl)carbonyl)-3-oxa-1,7-diazaspiro[4.4]nonan-2-one]	–	94
O=C1NC2(CCN(C(=O)c3sc4cc(OC(F)(F)F)ccc4c3Cl)C2)CO1 (stereo not drawn) [Example 321, 7-((3-chloro-6-(trifluoromethoxy)-1-benzothiophen-2-yl)carbonyl)-3-oxa-1,7-diazaspiro[4.4]nonan-2-one]	100	–

Source: patent US10610520B2, “Heterocyclic compound” (Takeda Pharmaceutical Company Limited, priority 2016, dated 2020)
